Source: ChEMBL document CHEMBL5550214, “Expanding Structure-Activity Relationships of Human Urotensin II Peptide Analogues: A Proposed Key Role of the N-Terminal Region for Novel Urotensin II Receptor Modulators” (J Med Chem, 2024)
The source made the active and inactive calls. The rule behind the calls is not given here.

Legend:
Aortic ring [1] = assay: Induction of contraction in Albino Wistar rat aortic ring assessed as Emax of hU-II at 1 uM incubated for 30 mins in presence of hU-II (reference value: 279.9 +/- 11.02 dyne/mg); format: functional, Aorta; details: 0.5 h
Aortic ring [2] = assay: Induction of contraction in Albino Wistar rat aortic ring assessed as Emax of [Ala1]U-II at 0.1 uM incubated for 30 mins in presence of [Ala1]U-II (reference value: 391.6 +/- 38.83 dyne/mg); format: functional, Aorta; details: 0.5 h
Aortic ring [3] = assay: Induction of contraction in Albino Wistar rat aortic ring assessed as Emax of U-II(4-11) at 10 uM incubated for 30 mins in presence of U-II(4-11) (reference value: 159.8 +/- 7.39 dyne/mg); format: functional, Aorta; details: 0.5 h
Aortic ring [4] = assay: Induction of contraction in Albino Wistar rat aortic ring assessed as Emax of U-II(4-11) at 0.1 uM incubated for 30 mins in presence of U-II(4-11) (reference value: 152.4 +/- 5.1 dyne/mg); format: functional, Aorta; details: 0.5 h
Aortic ring [5] = assay: Induction of contraction in Albino Wistar rat aortic ring assessed as Emax of [Ala1]U-II at 1 uM incubated for 30 mins in presence of [Ala1]U-II (reference value: 323 +/- 30.45 dyne/mg); format: functional, Aorta; details: 0.5 h
Aortic ring [6] = assay: Induction of contraction in Albino Wistar rat aortic ring assessed as Emax of hU-II at 0.1 uM incubated for 30 mins in presence of hU-II (reference value: 238.4 +/- 9.53 dyne/mg); format: functional, Aorta; details: 0.5 h
Aortic ring [7] = assay: Induction of contraction in Albino Wistar rat aortic ring at 1 to 30 nM; format: functional, tissue-based; details: Aorta, dose 1-30 nM
Aortic ring [8] = assay: Induction of contraction in Albino Wistar rat aortic ring assessed as Emax of [Ala1]U-II at 10 uM incubated for 30 mins in presence of [Ala1]U-II (reference value: 220.3 +/- 17.48 dyne/mg); format: functional, Aorta; details: 0.5 h
Aortic ring [9] = assay: Induction of contraction in Albino Wistar rat aortic ring assessed as Emax of hU-II at 10 uM incubated for 30 mins in presence of hU-II (reference value: 251.4 +/- 15.43 dyne/mg); format: functional, Aorta; details: 0.5 h
[10] = target: T1, Urotensin-2 receptor (Homo sapiens) (UniProt Q9UKP6); assay: Modulation of human UTR stably expressed in HEK293 cells assessed as increase in Ca2+ level at 0.1 to 100 nM by Fura 2-AM dye based calcium mobilization assay; format: functional, cell-based; details: dose 0.1-100 nM
T1 sequence (whole entry): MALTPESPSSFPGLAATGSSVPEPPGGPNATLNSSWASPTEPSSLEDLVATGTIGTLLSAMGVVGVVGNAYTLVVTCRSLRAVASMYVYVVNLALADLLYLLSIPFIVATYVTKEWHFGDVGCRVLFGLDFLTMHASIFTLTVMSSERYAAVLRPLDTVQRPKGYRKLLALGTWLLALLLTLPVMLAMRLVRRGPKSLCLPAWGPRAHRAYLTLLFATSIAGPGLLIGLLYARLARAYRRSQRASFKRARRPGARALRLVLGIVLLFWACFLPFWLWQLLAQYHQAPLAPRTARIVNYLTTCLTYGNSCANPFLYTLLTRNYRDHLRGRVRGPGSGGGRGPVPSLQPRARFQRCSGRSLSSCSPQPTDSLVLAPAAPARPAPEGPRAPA

Aortic ring [11] = assay: Induction of contraction in Albino Wistar rat aortic ring assessed as Emax of U-II(4-11) at 1 uM incubated for 30 mins in presence of U-II(4-11) (reference value: 242.6 +/- 20.63 dyne/mg); format: functional, Aorta; details: 0.5 h
Aortic ring [12] = assay: Induction of contraction in Albino Wistar rat aortic ring assessed as Emax of U-II(4-11) at 0.1 uM incubated for 30 mins in presence of U-II(4-11) (reference value: 159.8 +/- 7.3 dyne/mg); format: functional, Aorta; details: 0.5 h
Aortic ring [13] = assay: Induction of contraction in Albino Wistar rat aortic ring assessed as Emax of [Ala1]U-II at 10 uM incubated for 30 mins in presence of [Ala1]U-II (reference value: 323 +/- 30.45 dyne/mg); format: functional, Aorta; details: 0.5 h
Aortic ring [14] = assay: Induction of contraction in Albino Wistar rat aortic ring assessed as Emax of hU-II at 1 uM incubated for 30 mins in presence of hU-II (reference value: 238.4 +/- 9.53 dyne/mg); format: functional, Aorta; details: 0.5 h
Aortic ring [15] = assay: Induction of contraction in Albino Wistar rat aortic ring assessed as Emax of hU-II at 10 uM incubated for 30 mins in presence of hU-II (reference value: 279.9 +/- 11.02 dyne/mg); format: functional, Aorta; details: 0.5 h
Aortic ring [16] = assay: Induction of contraction in Albino Wistar rat aortic ring assessed as Emax of U-II(4-11) at 10 uM incubated for 30 mins in presence of U-II(4-11) (reference value: 242.6 +/- 20.63 dyne/mg); format: functional, Aorta; details: 0.5 h
Aortic ring [17] = assay: Induction of contraction in Albino Wistar rat aortic ring assessed as Emax of [Ala1]U-II at 1 uM incubated for 30 mins in presence of [Ala1]U-II (reference value: 391.6 +/- 38.83 dyne/mg); format: functional, Aorta; details: 0.5 h
Aortic ring [18] = assay: Induction of contraction in Albino Wistar rat aortic ring assessed as Emax of U-II(4-11) at 1 uM incubated for 30 mins in presence of U-II(4-11) (reference value: 152.4 +/- 5.1 dyne/mg); format: functional, Aorta; details: 0.5 h
Aortic ring [19] = assay: Induction of contraction in Albino Wistar rat aortic ring assessed as Emax of [Ala1]U-II at 0.1 uM incubated for 30 mins in presence of [Ala1]U-II (reference value: 153.3 +/- 10.75 dyne/mg); format: functional, Aorta; details: 0.5 h
Aortic ring [20] = assay: Induction of contraction in Albino Wistar rat aortic ring assessed as Emax of hU-II at 0.1 uM incubated for 30 mins in presence of hU-II (reference value: 214.5 +/- 10.51 dyne/mg); format: functional, Aorta; details: 0.5 h

Row | Activity [10] | SMILES | Emax (Aortic ring [1]) [dyn/mg] | Emax (Aortic ring [2]) [dyn/mg] | Emax (Aortic ring [3]) [dyn/mg] | Emax (Aortic ring [4]) [dyn/mg] | Emax (Aortic ring [5]) [dyn/mg] | Emax (Aortic ring [6]) [dyn/mg] | Activity (Aortic ring [7]) | Emax (Aortic ring [8]) [dyn/mg] | Emax (Aortic ring [9]) [dyn/mg] | Emax (Aortic ring [11]) [dyn/mg] | Emax (Aortic ring [12]) [dyn/mg] | Emax (Aortic ring [13]) [dyn/mg] | Emax (Aortic ring [14]) [dyn/mg] | Emax (Aortic ring [15]) [dyn/mg] | Emax (Aortic ring [16]) [dyn/mg] | Emax (Aortic ring [17]) [dyn/mg] | Emax (Aortic ring [18]) [dyn/mg] | Emax (Aortic ring [19]) [dyn/mg] | Emax (Aortic ring [20]) [dyn/mg]
1 | inactive | CC(C)[C@H](NC(=O)[C@@H]1CSSC(C)(C)[C@H](NC(=O)[C@H](CC(=O)O)NC(=O)[C@@H]2CCCN2C(=O)[C@@H](NC(=O)[C@@H](N)CCO)[C@@H](C)O)C(=O)N[C@@H](Cc2ccccc2)C(=O)N[C@H](Cc2c[nH]c3ccccc23)C(=O)N[C@@H](CCCN)C(=O)N[C@@H](Cc2ccc(O)cc2)C(=O)N1)C(=O)O | 188.6 | 251.5 | 111.3 | 120.9 | 119.1 | 179.2 | inactive | 148.9 | 181.9 | 93.38 |  |  |  |  |  |  |  |  | 
2 |  | CC(C)[C@H](NC(=O)[C@@H]1CSSC(C)(C)[C@H](NC(=O)[C@H](C)NC(=O)[C@@H]2CCCN2C(=O)[C@@H](NC(=O)[C@H](C)N)[C@@H](C)O)C(=O)N[C@@H](Cc2ccccc2)C(=O)N[C@H](Cc2c[nH]c3ccccc23)C(=O)N[C@@H](CCCN)C(=O)N[C@@H](Cc2ccc(O)cc2)C(=O)N1)C(=O)O |  |  |  |  |  |  | inactive |  |  |  | 354.4 | 457.6 | 231.1 | 126.2 | 261.8 | 593 | 502.2 | 406.4 | 386.5
